How the values were obtained:
Conditions in all cases: 72 h
Vero E6 [1] = assay: drug sensitivity score (DSS) for viability; higher = more toxic; extreme values may be limits of the assay
HepG2 [2] = assay: as above
Calu-3 [3] = assay: as above
U2OS [4] = assay: as above
Caco-2 [5] = assay: as above
Vero E6 [6] = assay: relative viability EC50 (midpoint between 100% and the lowest measured viability); higher = less toxic
HepG2 [7] = assay: as above
Calu-3 [8] = assay: as above
U2OS [9] = assay: as above
Caco-2 [10] = assay: as above
Vero E6 [11] = assay: cell viability relative to DMSO; higher = less toxic
HepG2 [12] = assay: as above
Calu-3 [13] = assay: as above
U2OS [14] = assay: as above
Caco-2 [15] = assay: as above

| SMILES | drug sensitivity score (Vero E6 [1]) | drug sensitivity score (HepG2 [2]) | drug sensitivity score (Calu-3 [3]) | drug sensitivity score (U2OS [4]) | drug sensitivity score (Caco-2 [5]) | relative viability EC50 (Vero E6 [6]) | relative viability EC50 (HepG2 [7]) | relative viability EC50 (Calu-3 [8]) | relative viability EC50 (U2OS [9]) | relative viability EC50 (Caco-2 [10]) | cell viability (Vero E6 [11]; 1 nM) | cell viability (Vero E6 [11]; 10 nM) | cell viability (Vero E6 [11]; 100 nM) | cell viability (Vero E6 [11]; 1000 nM) | cell viability (Vero E6 [11]; 10000 nM) | cell viability (HepG2 [12]; 1 nM) | cell viability (HepG2 [12]; 10 nM) | cell viability (HepG2 [12]; 100 nM) | cell viability (HepG2 [12]; 1000 nM) | cell viability (HepG2 [12]; 10000 nM) | cell viability (Calu-3 [13]; 1 nM) | cell viability (Calu-3 [13]; 10 nM) | cell viability (Calu-3 [13]; 100 nM) | cell viability (Calu-3 [13]; 1000 nM) | cell viability (Calu-3 [13]; 10000 nM) | cell viability (U2OS [14]; 1 nM) | cell viability (U2OS [14]; 10 nM) | cell viability (U2OS [14]; 100 nM) | cell viability (U2OS [14]; 1000 nM) | cell viability (U2OS [14]; 10000 nM) | cell viability (Caco-2 [15]; 1 nM) | cell viability (Caco-2 [15]; 10 nM) | cell viability (Caco-2 [15]; 100 nM) | cell viability (Caco-2 [15]; 1000 nM) | cell viability (Caco-2 [15]; 10000 nM) |
| --- | --- | --- | --- | --- | --- | --- | --- | --- | --- | --- | --- | --- | --- | --- | --- | --- | --- | --- | --- | --- | --- | --- | --- | --- | --- | --- | --- | --- | --- | --- | --- | --- | --- | --- | --- |
| CO[C@H]1CC[C@H](N(c2cc(C3=CCCCC3)sc2C(=O)O)C(=O)[C@H]2CC[C@H](C)CC2)CC1 [VCH-916] | 0 | 0 | 0 | 0 | 0 | > 10 µM | > 10 µM | > 10 µM | > 10 µM | > 10 µM | 96.9% | 95.7% | 98.8% | 103% | 110% | 103% | 92.8% | 110% | 110% | 114% | 90.8% | 110% | 107% | 97.5% | 104% | 96.2% | 98.7% | 98.6% | 98.6% | 101% | 92.2% | 93.4% | 105% | 95.5% | 105% |
| COc1ccc(C(Cl)=C(c2ccc(OC)cc2)c2ccc(OC)cc2)cc1 [chlorotrianisene] | 0 | 0 | 0 | 0 | 0 | > 10 µM | > 10 µM | > 10 µM | > 10 µM | > 10 µM | 93.8% | 103% | 91.8% | 99.5% | 106% | 98.5% | 94.9% | 93.6% | 111% | 101% | 98.5% | 95.9% | 104% | 83.6% | 99.9% | 95.5% | 97.8% | 101% | 102% | 93.6% | 98.5% | 97.5% | 98% | 104% | 102% |
| CC(C)(N)C(=O)N[C@H](COCc1ccccc1)C(=O)N1CCC2(CC1)CN(S(C)(=O)=O)c1ccccc12 [ibutamoren] | 0 | 0 | 0 | 0 | 0 | > 10 µM | > 10 µM | > 10 µM | > 10 µM | > 10 µM | 104% | 103% | 98.1% | 95.6% | 108% | 102% | 89.5% | 95.6% | 98% | 95.6% | 111% | 108% | 98% | 105% | 91% | 100% | 100% | 96.9% | 102% | 100% | 93.6% | 98.4% | 99% | 100% | 95.8% |
| Cc1cc(NC(=O)NCCN2CCC(O)(Cc3ccccc3)CC2)c2ccccc2n1 [palosuran] | 0 | 0 | 0 | 0 | 0 | > 10 µM | > 10 µM | > 10 µM | > 10 µM | > 10 µM | 104% | 106% | 99.4% | 104% | 102% | 102% | 110% | 96.3% | 99.7% | 92.5% | 95.3% | 91.9% | 103% | 100% | 89.4% | 99.3% | 94.9% | 98% | 96.5% | 103% | 99.5% | 93.1% | 88.3% | 99.4% | 104% |
| C[C@@H]1CN(c2c(F)c(N)c3c(=O)c(C(=O)O)cn(C4CC4)c3c2F)C[C@H](C)N1 [sparfloxacin] | 0 | 0 | 0 | 0 | 0 | > 10 µM | > 10 µM | > 10 µM | > 10 µM | > 10 µM | 98.6% | 103% | 103% | 98.6% | 96% | 110% | 98.6% | 111% | 94.7% | 92.5% | 97.6% | 93% | 106% | 110% | 97.5% | 101% | 102% | 95.9% | 101% | 99% | 96.3% | 101% | 95.1% | 93.4% | 98% |

— the supplement of paper PMC13380429
